From patent US8227428B2, “Anti-infammatory macrolide” (Glaxo Group Limited, priority 2009, dated 2012)

Test: Stability in buffer solutions pH 2 to pH 8 at 25° C.
Assay type: physicochemical
Experimental: Stability in buffer solutions pH 2 to pH 8 at 25° C., and in bio-relevant media (SGF pH 1.6, Fasted SIF pH 6.5 and Fed SIF pH 5.0) at 37° C., during 24 hours is monitored. The samples are analysed by LC/MS.
Buffer Solutions and Physiologically Relevant Media Used in Stability Assay:
LC Conditions: Instrument HP1100
Column: Waters XBridge C18, 2.1×50 mm, 3.5 μm
Guard column: Waters XBridge C18, 2.1×10 mm, 3.5 μm
• A) 0.1% HCOOH/H2O • B) 0.1% HCOOH/CH3CN Gradient Timetable: […]
Flow: 0.3 mL/min Column temp.: 25° C. Sample temp.: 25° C. (for stability assay in buffer solutions) • 37° C. (for stability assay in bio-relevant media) Injector volume: 3 μL (without injection program) MS Conditions: Instrument HP MS API-ES, positive ion mode Mass Range: 150-1500 Fragmentor: 100 Gain: 1.0 Treshold: 150 Step size: 0.20 Gas Temperature: 350° C. Drying Gas Flow: 13 L/min Nebulizer Pressure: 35 psig Capillary Voltage Positive 4000 V • Negative 4000 V Sample Preparation: a) For Stability Assay in Buffer Solutions
Compounds are dissolved in CH3CN to produce a 1 mg/mL stock solution. The stock solution is diluted to a concentration of 0.2 mg/mL (1 mL solution in 4 mL buffer) with appropriate buffer to produce a working solution.
Each solution at each pH is then dispatched into vials that are sealed and stored at room temperature in order to be analyzed at the proper time point. Before analysis, pH values of prepared sample solutions are checked and adjusted if neccessary.

In the case of `CC[C@H]1OC(=O)[C@H](C)[C@@H](O[C@H]2C[C@@](C)(OC)[C@@H](OC(=O)CCN(CC)CC)[C@H](C)O2)[C@H](C)[C@@H](O[C@@H]2O[C@H](C)C[C@H](NC)[C@H]2O)[C@](C)(OC)C[C@@H](C)C(=O)N[C@H](C)[C@@H](O)[C@]1(C)O` [Example 2, 3′-N-Demethyl-4″-O-(3-diethylaminopropionoyl)-6-O-methyl-9a-aza-9a-homoerythromycin A], the “stability in buffers at pH 7 and at pH 8” value (25° C., during 24 hours) is reported as “showed instability”, the “Percentage (Area %) of the compound observed in buffers” value (from here on “Percentage (Area %)”) (pH 2, 25° C., 2 h) is reported as 100 Area % and the “Percentage (Area %)” value (pH 2, 25° C., 4 h) is reported as 100 Area %. For the same compound, the “Percentage (Area %)” value (pH 2, 25° C., 6 h) was 98.7 Area %, the “Percentage (Area %)” value (pH 2, 25° C., 8 h) was 98.5 Area % and the “Percentage (Area %)” value (pH 2, 25° C., 12 h) was 97.6 Area %. For the same compound, the “Percentage (Area %)” value (pH 2, 25° C., 14 h) was 97.6 Area %, the “Percentage (Area %)” value (pH 2, 25° C., 18 h) was 97.5 Area % and the “Percentage (Area %)” value (pH 2, 25° C., 20 h) was 97.3 Area %. For the same compound, the “Percentage (Area %)” value (pH 2, 25° C., 22 h) was 97.2 Area %, the “Percentage (Area %)” value (pH 2, 25° C., 24 h) was 97.2 Area % and the “Percentage (Area %)” value (pH 2, 25° C., Initial) was 100 Area %. For the same compound, the “Percentage (Area %)” value (pH 3, 25° C., 2 h) was 100 Area %, the “Percentage (Area %)” value (pH 3, 25° C., 4 h) was 100 Area % and the “Percentage (Area %)” value (pH 3, 25° C., 6 h) was 98.8 Area %. For the same compound, the “Percentage (Area %)” value (pH 3, 25° C., 8 h) was 97.5 Area %, the “Percentage (Area %)” value (pH 3, 25° C., 12 h) was 97.3 Area % and the “Percentage (Area %)” value (pH 3, 25° C., 14 h) was 97.3 Area %. The “Percentage (Area %)” value (pH 3, 25° C., 18 h) was 97.0 Area %, the “Percentage (Area %)” value (pH 3, 25° C., 20 h) was 97.0 Area % and the “Percentage (Area %)” value (pH 3, 25° C., 22 h) was 97.0 Area %. The “Percentage (Area %)” value (pH 3, 25° C., 24 h) was 96.9 Area %, the “Percentage (Area %)” value (pH 3, 25° C., Initial) was 100 Area % and the “Percentage (Area %)” value (pH 4, 25° C., 2 h) was 100 Area %. The “Percentage (Area %)” value (pH 4, 25° C., 4 h) was 100 Area %, the “Percentage (Area %)” value (pH 4, 25° C., 6 h) was 100 Area % and the “Percentage (Area %)” value (pH 4, 25° C., 8 h) was 99.3 Area %. For the same compound, the “Percentage (Area %)” value (pH 4, 25° C., 12 h) was 99.0 Area %, the “Percentage (Area %)” value (pH 4, 25° C., 14 h) was 98.5 Area % and the “Percentage (Area %)” value (pH 4, 25° C., 18 h) was 98.5 Area %. The “Percentage (Area %)” value (pH 4, 25° C., 20 h) was 98.4 Area %, the “Percentage (Area %)” value (pH 4, 25° C., 22 h) was 98.4 Area % and the “Percentage (Area %)” value (pH 4, 25° C., 24 h) was 98.3 Area %. For the same compound, the “Percentage (Area %)” value (pH 4, 25° C., Initial) was 100 Area %, the “Percentage (Area %)” value (pH 5, 25° C., 2 h) was 98.5 Area % and the “Percentage (Area %)” value (pH 5, 25° C., 4 h) was 98.5 Area %. The “Percentage (Area %)” value (pH 5, 25° C., 6 h) was 98.4 Area %, the “Percentage (Area %)” value (pH 5, 25° C., 8 h) was 98.4 Area % and the “Percentage (Area %)” value (pH 5, 25° C., 12 h) was 98.4 Area %. The “Percentage (Area %)” value (pH 5, 25° C., 14 h) was 98.3 Area %, the “Percentage (Area %)” value (pH 5, 25° C., 18 h) was 98.3 Area % and the “Percentage (Area %)” value (pH 5, 25° C., 20 h) was 98.3 Area %. The “Percentage (Area %)” value (pH 5, 25° C., 22 h) was 98.3 Area %, the “Percentage (Area %)” value (pH 5, 25° C., 24 h) was 98.0 Area % and the “Percentage (Area %)” value (pH 5, 25° C., Initial) was 100 Area %. The “Percentage (Area %)” value (pH 6, 25° C., 2 h) was 99.6 Area %, the “Percentage (Area %)” value (pH 6, 25° C., 4 h) was 99.4 Area % and the “Percentage (Area %)” value (pH 6, 25° C., 6 h) was 99.0 Area %. The “Percentage (Area %)” value (pH 6, 25° C., 8 h) was 99.0 Area %, the “Percentage (Area %)” value (pH 6, 25° C., 12 h) was 99.0 Area % and the “Percentage (Area %)” value (pH 6, 25° C., 14 h) was 98.5 Area %. For the same compound, the “Percentage (Area %)” value (pH 6, 25° C., 18 h) was 98.3 Area %.
